Measured values reported in patent US9102599B2, “N-((3-benzyl)-2,2-(bis-phenyl)-propan-1-amine derivatives as CETP inhibitors for the treatment of atherosclerosis and cardiovascular diseases” (Bristol-Myers Squibb Company, priority 2006, dated 2015).

target: purified human recombinant CETP (Homo sapiens (Human), UniProt P11597); experiment: CETP Scintillation Proximity Assay; assay type: biochemical; settings: CETP-dependent cholesterol ester transfer from 3H-CE/HDL to biotinylated LDL, 37° C.; read-out: CETP SPA IC50
Experimental: CETP Scintillation Proximity Assay
Dilutions of compounds in DMSO (1 μl) are added to BD plates (#353232). To this is added 20 μl of a mixture containing ^3H-CE/HDL (0.15 μl), biotinylated LDL (˜5 μg protein/ml final concentration) and unlabeled HDL (16 μg/ml final concentration) in a buffer containing 50 mM HEPES, pH 7.4, 150 mM NaCl and 0.05% sodium azide. Reactions are initiated by the addition of 10 μl of buffer containing purified human recombinant CETP, and incubated at 37° C. At the end of the reaction, 60 μl of LEADseeker beads (#RPNQ0261, 2 mg/ml in buffer containing 1 mg/ml BSA and 0.05 mg protein/ml HDL) are added, the plates are covered and subsequently read. Background activity is determined in a set of wells that receive buffer but no CETP. The level of inhibition is determined by comparing the readings in wells that contain compound to the readings in control wells containing DMSO.

Chain of purified human recombinant CETP (P11597 18-493): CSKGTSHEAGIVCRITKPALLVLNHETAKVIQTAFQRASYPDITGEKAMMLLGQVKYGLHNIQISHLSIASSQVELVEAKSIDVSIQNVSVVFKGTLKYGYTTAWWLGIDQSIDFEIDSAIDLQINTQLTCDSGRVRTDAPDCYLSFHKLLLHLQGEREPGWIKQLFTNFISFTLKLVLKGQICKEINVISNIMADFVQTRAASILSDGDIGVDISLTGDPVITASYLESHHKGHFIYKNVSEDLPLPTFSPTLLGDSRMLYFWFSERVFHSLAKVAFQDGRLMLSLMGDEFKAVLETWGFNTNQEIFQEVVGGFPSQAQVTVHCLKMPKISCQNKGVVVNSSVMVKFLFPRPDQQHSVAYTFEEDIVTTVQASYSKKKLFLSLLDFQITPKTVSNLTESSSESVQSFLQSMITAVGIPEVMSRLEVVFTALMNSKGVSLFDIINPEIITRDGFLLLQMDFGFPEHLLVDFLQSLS

Molecule | IC50 [nM]
O=C(NC[C@@](Cc1ccccc1)(c1cc(F)cc(C(F)(F)F)c1)c1ccc(F)cn1)[C@@](O)(c1ccccc1)C(F)(F)F [Example 5, (S)-3,3,3-trifluoro-N—((R)-2-(3-fluoro-5-(trifluoromethyl)phenyl)-2-(5-fluoropyridin-2-yl)-3-phenylpropyl)-2-hydroxy-2-phenylpropanamide] | 4360
O=C(NCC(Cc1ccccc1)(c1cccc(OC(F)(F)F)c1)c1cccc(OC(F)(F)F)c1)C1CC1(F)F (stereo not drawn) [Example 11, 2,2-difluoro-N-(3-phenyl-2,2-bis(3-(trifluoromethoxy)phenyl)propyl)cyclopropanecarboxamide] | 1430
O=C(NCC(F)(F)F)NCC(Cc1ccccc1)(c1cccc(OC(F)(F)F)c1)c1cccc(OC(F)(F)F)c1 [Example 27, 1-(3-phenyl-2,2-bis(3-(trifluoromethoxy)phenyl)propyl)-3-(2,2,2-trifluoroethyl)urea] | 132
Cc1cc(CC(CNC[C@H](O)C(F)(F)F)(c2cccc(OC(F)(F)F)c2)c2cccc(OC(F)(F)F)c2)no1 [Example 43, (S)-1,1,1-trifluoro-3-(3-(5-methylisoxazol-3-yl)-2,2-bis(3-(trifluoromethoxy)phenyl)propylamino)propan-2-ol] | 134
O[C@@H](CN(C[C@H](O)C(F)(F)F)CC(Cc1ccccc1)(c1cccc(OC(F)(F)F)c1)c1cccc(OC(F)(F)F)c1)C(F)(F)F [Example 45, (2S,2′S)-3,3′-(3-phenyl-2,2-bis(3-(trifluoromethoxy)phenyl)propylazanediyl)bis(1,1,1-trifluoropropan-2-ol)] | 2810
Oc1c(F)cccc1CNCC(Cc1ccccc1)(c1cccc(OC(F)(F)F)c1)c1cccc(OC(F)(F)F)c1 [Example 94, 2-fluoro-6-((3-phenyl-2,2-bis(3-(trifluoromethoxy)phenyl)propylamino)methyl)phenol] | 184
FC(F)(F)Oc1cccc(C(CNc2ncc(N3CCOCC3)cn2)(Cc2ccccc2)c2cccc(OC(F)(F)F)c2)c1 [Example 112, 5-morpholino-N-(3-phenyl-2,2-bis(3-(trifluoromethoxy)phenyl)propyl)pyrimidin-2-amine] | 248
isopropyl 3-phenyl-2,2-bis(3- (trifluoromethoxy)phenyl)- propylcarbamate [Example 133] | 1090

Continued by falling IC50, values first:

IC50 [nM] | Molecule
129 | O=S(=O)(CC(F)(F)F)NCC(Cc1ccccc1)(c1cccc(OC(F)(F)F)c1)c1cccc(OC(F)(F)F)c1 [Example 122, 2,2,2-trifluoro-N-(3-phenyl-2,2-bis(3-(trifluoromethoxy)phenyl)-propyl)ethanesulfonamide]
30 | O[C@H](CNC[C@@](Cc1ccccc1)(c1cc(F)cc(C(F)(F)F)c1)c1ccc(F)cn1)C(F)(F)F [Example 6, (R)-1,1,1-trifluoro-3-((R)-2-(3-fluoro-5-(trifluoromethyl)phenyl)-2-(5-fluoropyridin-2-yl)-3-phenylpropylamino)propan-2-ol]
25 | FC(F)(F)CCNCC(Cc1ccccc1)(c1cccc(OC(F)(F)F)c1)c1cccc(OC(F)(F)F)c1 [Example 53, 3,3,3-trifluoro-N-(3-phenyl-2,2-bis(3-(trifluoromethoxy)phenyl)propyl)propan-1-amine]
19 | O[C@H](CNCC(Cc1ccccn1)(c1cccc(OC(F)(F)F)c1)c1cccc(OC(F)(F)F)c1)C(F)(F)F [Example 44, (R)-1,1,1-trifluoro-3-(3-(pyridin-2-yl)-2,2-bis(3-(trifluoromethoxy)phenyl)propylamino)propan-2-ol]
14 | O[C@H](CNCC(Cc1ccccc1)(c1cccc(OC(F)(F)F)c1)c1cccc(OC(F)(F)F)c1)C(F)(F)F [Example 47, (R)-1,1,1-trifluoro-3-(3-phenyl-2,2-bis(3-(trifluoromethoxy)phenyl)propylamino)propan-2-ol]
9 | O[C@H](CNC[C@@](Cc1ccccc1)(c1cc(F)cc(OC(F)(F)C(F)F)c1)c1ccc(Cl)cn1)C(F)(F)F (stereo in doubt) [Example 2, (R)-3-OR)-2-(5-chloropyridin-2-yl)-2-(3-fluoro-5-(1,1,2,2-tetrafluoroethoxy)phenyl)-3-phenylpropylamino)-1,1,1-trifluoropropan-2-ol]
9 | Cc1ccc(CC(CNC[C@@H](O)C(F)(F)F)(c2cccc(OC(F)(F)F)c2)c2cccc(OC(F)(F)F)c2)cc1 [Example 50, (R)-1,1,1-trifluoro-3-(3-p-tolyl-2,2-bis(3-(trifluoromethoxy)phenyl)propylamino)propan-2-ol]
